{
  "source": "patent US20250339420A1",
  "about": "“ANILINE-DERIVATIVE-CONTAINING EXTERNAL PREPARATION FOR SKIN” (KINOPHARMA, INC., priority 2022, published 2025)",
  "origin": "cited, not measured here",
  "key": {"[1]": {"system": "E6 and E7 genes of human papillomavirus (HPV)"}},
  "data": [
    {"smiles": "Fc1ccc(N2CCCCC2)c(NC(=S)c2ccncc2)c1", "note": "[Compound I-a, N-[5-fluoro-2-(1-piperidinyl)phenyl]-4-pyridinethioamide]", "values": [
      {"measurement": "antiviral activity against papillomavirus", "setting": "papillomavirus", "value": "exhibits antiviral activity"},
      {"measurement": "expression of E6 and E7 genes of human papillomavirus (HPV)", "setting": "[1]", "value": "suppresses expression"},
      {"measurement": "effect on p53 gene", "setting": "p53 gene", "value": "stabilizes p53 gene"}
    ]}
  ]
}
